Experiments:
THP-1 cells = experiment: Cell viability assay (CellTiter 96 / MTT, A490); assay type: cell-based, human; details: THP-1, 50 to 500 μM apigenin, 24 h; reduced to
Experimental: (§1) FIG. 1. Effect of apigenin and naringenin in cell survival of cancer cells. (A) Structure of the flavonoids apigenin and naringenin. (B) THP-1, U937, A549, and MCF-7 cells were treated with various doses of apigenin or naringenin for 24 h. After the treatment, the percentage of cell proliferation was calculated as the ratio of treated cells to control cells as determined by the MTT method (A490). Data represents means ±SEM (N=9). […] Cells were plated at a density of 2×10^4 cells/well into 96-well plates and treated with flavonoids at indicated concentrations for 24 h. Absorbance at 490 nm (A490) was recorded using an ELISA plate reader (Bio-Tek ELx800, KC Junior, Winooski, Vt.).

U937 cells = experiment: Cell viability assay (CellTiter 96 / MTT, A490); assay type: cell-based, human; details: 24 h, reduced to
Experimental: as §1

With `O=c1cc(-c2ccc(O)cc2)oc2cc(O)cc(O)c12` [apigenin] the “cell proliferation (ratio of treated to control cells)” value (THP-1 cells) was “approximately 20%”, the “cell proliferation (ratio of treated to control cells)” value (U937 cells; U937, 50 μM apigenin) was 50% and the “cell proliferation (ratio of treated to control cells)” value (U937 cells; U937, higher concentrations of apigenin (above 50 μM)) was 20%.
